Data as given in PubChem BioAssay AID256 (DTP/NCI, 2004).
Inconclusive results and toxic doses are left out. The calls were made as follows: active = survival T/C of 150% or more; inactive = T/C below 125% in these data.

Test system: CD2F1 mice, L1210 leukemia ip, survival T/C
Assay: NCI In Vivo Anticancer Drug Screen. Data for tumor model L1210 Leukemia (intraperitoneal) in CD2F1 (CDF1) mice
Details: endpoint: mean survival time, higher = longer survival
Procedure, shortened: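 Tumor-bearing mice (transplanted tumor) were split into treated and vehicle control groups, and the measured endpoint of each treated group was divided by that of its vehicle controls.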

[1] = dose: 25.0 mg/kg/injection, schedule: Q01DX009 (ip), vehicle: saline with Tween-80
[2] = dose: 50.0 mg/kg/injection, schedule: Q01DX009 (ip), vehicle: saline with Tween-80
[3] = dose: 200.0 mg/kg/injection, schedule: Q04DX002 (ip), vehicle: saline with Tween-80
[4] = dose: 100.0 mg/kg/injection, schedule: Q01DX009 (ip), vehicle: saline with Tween-80
[5] = dose: 200.0 mg/kg/injection, schedule: Q01DX009 (ip), vehicle: saline with Tween-80
[6] = dose: 400.0 mg/kg/injection, schedule: Q01DX009 (ip), vehicle: saline with Tween-80
[7] = dose: 100.0 mg/kg/injection, schedule: Q04DX003 (ip), vehicle: saline with Tween-80
[8] = dose: 200.0 mg/kg/injection, schedule: Q04DX003 (ip), vehicle: saline with Tween-80
[9] = dose: 400.0 mg/kg/injection, schedule: Q04DX003 (ip), vehicle: saline with Tween-80
[10] = dose: 50.0 mg/kg/injection, schedule: Q04DX003 (ip), vehicle: saline with Tween-80
[11] = dose: 100.0 mg/kg/injection, schedule: Q01DX001 (ip), vehicle: saline
[12] = dose: 100.0 mg/kg/injection, schedule: Q01DX001 (ip), vehicle: saline with Tween-80
[13] = dose: 400.0 mg/kg/injection, schedule: Q01DX001 (ip), vehicle: saline with Tween-80

Measured: T/C

CCCCC(/C=N/N=C/C(CC)CCCC)CC (centres undefined)
inactive: dose: 6.25 mg/kg/injection, schedule: Q01DX005 (ip), vehicle: saline with Tween-80 92 % of control | dose: 6.25 mg/kg/injection, schedule: Q01DX009 (ip), vehicle: saline with Tween-80 91 % of control | dose: 6.25 mg/kg/injection, schedule: Q04DX002 (ip), vehicle: saline 98 % of control | dose: 12.5 mg/kg/injection, schedule: Q01DX005 (ip), vehicle: saline with Tween-80 92 % of control | dose: 12.5 mg/kg/injection, schedule: Q01DX009 (ip), vehicle: saline with Tween-80 91 % of control | dose: 12.5 mg/kg/injection, schedule: Q04DX002 (ip), vehicle: saline 103 % of control | dose: 25.0 mg/kg/injection, schedule: Q01DX005 (ip), vehicle: saline with Tween-80 89 % of control | [1] 95 % of control | dose: 25.0 mg/kg/injection, schedule: Q04DX002 (ip), vehicle: saline 103 % of control | dose: 50.0 mg/kg/injection, schedule: Q01DX005 (ip), vehicle: saline with Tween-80 92 % of control | [2] 91 % of control | dose: 50.0 mg/kg/injection, schedule: Q04DX002 (ip), vehicle: saline with Tween-80 95 % of control | dose: 50.0 mg/kg/injection, schedule: Q04DX002 (ip), vehicle: saline 106 % of control | [3] 88 % of control

CC(C)(C)[Si](OP(N)(=O)N(CCCl)CCCl)(c1ccccc1)c1ccccc1 (centres undefined)
inactive: dose: 15.6 mg/kg/injection, schedule: Q01DX001 (ip), vehicle: distilled water + Tween-80 102 % of control | dose: 31.3 mg/kg/injection, schedule: Q01DX001 (ip), vehicle: distilled water + Tween-80 110 % of control | dose: 62.5 mg/kg/injection, schedule: Q01DX001 (ip), vehicle: distilled water + Tween-80 110 % of control | dose: 125.0 mg/kg/injection, schedule: Q01DX001 (ip), vehicle: distilled water + Tween-80 122 % of control | dose: 250.0 mg/kg/injection, schedule: Q01DX001 (ip), vehicle: distilled water + Tween-80 111 % of control | dose: 500.0 mg/kg/injection, schedule: Q01DX001 (ip), vehicle: distilled water + Tween-80 117 % of control

CC(=O)c1ccc2sc3ccccc3c2c1
inactive: [4] 98 % of control | [5] 93 % of control | [6] 93 % of control

O=C(c1ccccc1)N(C(=O)c1ccccc1)c1cccc[n+]1[O-]
inactive: [7] 100 % of control | [8] 97 % of control | [9] 102 % of control

S=c1[n-]c2ccccc2s1.S=c1[n-]c2ccccc2s1.[Cl][Pt+2][Cl]
inactive: dose: 25.0 mg/kg/injection, schedule: Q04DX003 (ip), vehicle: saline with Tween-80 95 % of control | [10] 88 % of control | [7] 93 % of control | [8] 90 % of control

CC1CC(C)(C)CC(=O)O1 (centres undefined)
inactive: dose: 75.0 mg/kg/injection, schedule: Q01DX001 (ip), vehicle: saline 101 % of control

CN(C)S(=O)(=O)C=C(c1ccccc1)c1ccccc1
inactive: [7] 107 % of control | [8] 96 % of control | [9] 94 % of control

O=c1[nH]c(=O)n(C2CCOC2)cc1Br (centres undefined)
inactive: [11] 103 % of control | dose: 200.0 mg/kg/injection, schedule: Q01DX001 (ip), vehicle: saline 100 % of control | dose: 400.0 mg/kg/injection, schedule: Q01DX001 (ip), vehicle: saline 103 % of control

NNC1CC2CCC1C2 (centres undefined)
inactive: dose: 12.5 mg/kg/injection, schedule: Q01DX009 (ip), vehicle: saline 95 % of control | dose: 25.0 mg/kg/injection, schedule: Q01DX009 (ip), vehicle: saline 93 % of control

CCN(Cc1cccc(S(=O)(=O)O)c1)c1ccc(C(=C2C=CC(=[N+](CC)Cc3cccc(S(=O)(=O)O)c3)C=C2)c2ccc(S(=O)(=O)O)cc2)cc1
inactive: [4] 103 % of control | [7] 96 % of control | [5] 97 % of control | [8] 93 % of control | [6] 95 % of control | [9] 90 % of control

CC(C)CCCC(C)C1CCC2C3CC(CO)C4CC(O)CCC4(C)C3CCC12C (centres undefined)
inactive: [7] 87 % of control | [8] 88 % of control

CCN=C(NCC)S(=O)O
inactive: dose: 100.0 mg/kg/injection, schedule: Q01DX009 (ip), vehicle: saline 90 % of control | dose: 200.0 mg/kg/injection, schedule: Q01DX009 (ip), vehicle: saline 97 % of control | dose: 400.0 mg/kg/injection, schedule: Q01DX009 (ip), vehicle: saline 103 % of control

O=[N+]([O-])c1ccc(F)cc1
inactive: dose: 10.0 mg/kg/injection, schedule: Q04DX003 (ip), vehicle: saline 104 % of control | dose: 20.0 mg/kg/injection, schedule: Q04DX003 (ip), vehicle: saline 102 % of control | dose: 40.0 mg/kg/injection, schedule: Q04DX003 (ip), vehicle: saline 102 % of control

S=c1ssc(-c2ccccc2)c1-c1ccccc1
inactive: [4] 97 % of control | [7] 87 % of control | [5] 100 % of control | [8] 92 % of control | [6] 106 % of control | [9] 93 % of control

CN1CCC(COC(=O)C(O)(c2ccccc2)c2ccccc2)C1 (centres undefined)
inactive: [1] 100 % of control | [2] 100 % of control | [4] 94 % of control

CC1CCCC(C)N1c1ccc(NC(=O)c2ccc(C(=O)Nc3ccc(N4C(C)CCCC4C)cc3)cc2)cc1 (centres undefined)
inactive: [11] 86 % of control

Cc1ccc(S(=O)(=O)O/N=C2/CCSc3ccccc32)cc1
inactive: dose: 100.0 mg/kg/injection, schedule: Q01DX001 (ip), vehicle: acetone 100 % of control | dose: 200.0 mg/kg/injection, schedule: Q01DX001 (ip), vehicle: acetone 97 % of control | dose: 400.0 mg/kg/injection, schedule: Q01DX001 (ip), vehicle: acetone 97 % of control

FC(F)(F)Cc1ccccc1
inactive: [12] 103 % of control | dose: 200.0 mg/kg/injection, schedule: Q01DX001 (ip), vehicle: saline with Tween-80 108 % of control | [13] 105 % of control

ClC1C(Cl)C(Cl)C(Cl)C(Cl)C1Cl (centres undefined)
inactive: dose: 10.0 mg/kg/injection, schedule: Q01DX009 (ip), vehicle: saline with Tween-80 104 % of control | dose: 20.0 mg/kg/injection, schedule: Q01DX009 (ip), vehicle: saline with Tween-80 105 % of control | dose: 40.0 mg/kg/injection, schedule: Q01DX009 (ip), vehicle: saline with Tween-80 100 % of control | dose: 100.0 mg/kg/injection, schedule: Q01DX009 (ip), vehicle: other 102 % of control | dose: 100.0 mg/kg/injection, schedule: Q04DX003 (ip), vehicle: Klucel (hydroxypropylcellulose) (HPC) 102 % of control | dose: 200.0 mg/kg/injection, schedule: Q01DX009 (ip), vehicle: other 96 % of control | dose: 200.0 mg/kg/injection, schedule: Q04DX003 (ip), vehicle: Klucel (hydroxypropylcellulose) (HPC) 107 % of control | dose: 400.0 mg/kg/injection, schedule: Q04DX003 (ip), vehicle: Klucel (hydroxypropylcellulose) (HPC) 102 % of control

CC(C)c1ccc2c(c1)CCC(C(Cl)Cl)C2(C)C (centres undefined)
inactive: dose: 100.0 mg/kg/injection, schedule: Q04DX002 (ip), vehicle: saline with Tween-80 95 % of control | [3] 111 % of control | dose: 400.0 mg/kg/injection, schedule: Q04DX002 (ip), vehicle: saline with Tween-80 100 % of control

O=C1NC2CC3CC(C2)CC1C3
inactive: dose: 12.5 mg/kg/injection, schedule: Q04DX003 (ip), vehicle: alcohol 100 % of control | dose: 25.0 mg/kg/injection, schedule: Q04DX003 (ip), vehicle: alcohol 92 % of control | dose: 50.0 mg/kg/injection, schedule: Q04DX003 (ip), vehicle: alcohol 97 % of control

O=C(Nc1ccc2ccccc2c1-c1c(NC(=O)c2ccccc2)ccc2ccccc12)c1ccccc1
inactive: [12] 91 % of control | [13] 91 % of control

O=C(O)CNC(=O)C(Br)Cc1ccccc1 (centres undefined)
inactive: [7] 101 % of control | [8] 101 % of control | [9] 103 % of control

CC[N+](C)(CC)Cc1ccc([NH-])c([NH-])c1.[Cl][Pt+2][Cl]
inactive: dose: 3.13 mg/kg/injection, schedule: Q04DX003 (ip), vehicle: water 90 % of control | dose: 6.25 mg/kg/injection, schedule: Q04DX003 (ip), vehicle: water 95 % of control | dose: 12.5 mg/kg/injection, schedule: Q04DX003 (ip), vehicle: water 94 % of control

O=c1o[nH]c(-c2ccccc2)c1-c1ccccc1
inactive: [10] 95 % of control | [7] 98 % of control | [8] 106 % of control
